The subject of one experiment is VSV-WT. In kind it is cell-based, vesicular stomatitis virus (Indiana strain).
For a further experiment, the system named is MARV VP40 (mVP40) VLPs. The experiment in a line: organism not typed. Format: cell-based, Marburg virus (MARV).
A further experiment concerns the target mVP40-Nedd4 interaction (Homo sapiens, UniProt P46934). Format: cell-based.
For another experiment, the system named is EBOV VP40 (eVP40) VLPs. In kind it is cell-based, Ebola virus (EBOV).
A further experiment has as its system E-BiMC (Ebola VP40). In kind it is cell-based.
The subject of a further experiment is VSV-M40. Format: cell-based, vesicular stomatitis virus.
For a further experiment, the system named is LFV Z VLPs. Format: cell-based, Lassa fever virus (LFV).

Where two headings read alike, the source gives them in different places.

mVP40-Nedd4 interaction, sequence (P46934 whole entry): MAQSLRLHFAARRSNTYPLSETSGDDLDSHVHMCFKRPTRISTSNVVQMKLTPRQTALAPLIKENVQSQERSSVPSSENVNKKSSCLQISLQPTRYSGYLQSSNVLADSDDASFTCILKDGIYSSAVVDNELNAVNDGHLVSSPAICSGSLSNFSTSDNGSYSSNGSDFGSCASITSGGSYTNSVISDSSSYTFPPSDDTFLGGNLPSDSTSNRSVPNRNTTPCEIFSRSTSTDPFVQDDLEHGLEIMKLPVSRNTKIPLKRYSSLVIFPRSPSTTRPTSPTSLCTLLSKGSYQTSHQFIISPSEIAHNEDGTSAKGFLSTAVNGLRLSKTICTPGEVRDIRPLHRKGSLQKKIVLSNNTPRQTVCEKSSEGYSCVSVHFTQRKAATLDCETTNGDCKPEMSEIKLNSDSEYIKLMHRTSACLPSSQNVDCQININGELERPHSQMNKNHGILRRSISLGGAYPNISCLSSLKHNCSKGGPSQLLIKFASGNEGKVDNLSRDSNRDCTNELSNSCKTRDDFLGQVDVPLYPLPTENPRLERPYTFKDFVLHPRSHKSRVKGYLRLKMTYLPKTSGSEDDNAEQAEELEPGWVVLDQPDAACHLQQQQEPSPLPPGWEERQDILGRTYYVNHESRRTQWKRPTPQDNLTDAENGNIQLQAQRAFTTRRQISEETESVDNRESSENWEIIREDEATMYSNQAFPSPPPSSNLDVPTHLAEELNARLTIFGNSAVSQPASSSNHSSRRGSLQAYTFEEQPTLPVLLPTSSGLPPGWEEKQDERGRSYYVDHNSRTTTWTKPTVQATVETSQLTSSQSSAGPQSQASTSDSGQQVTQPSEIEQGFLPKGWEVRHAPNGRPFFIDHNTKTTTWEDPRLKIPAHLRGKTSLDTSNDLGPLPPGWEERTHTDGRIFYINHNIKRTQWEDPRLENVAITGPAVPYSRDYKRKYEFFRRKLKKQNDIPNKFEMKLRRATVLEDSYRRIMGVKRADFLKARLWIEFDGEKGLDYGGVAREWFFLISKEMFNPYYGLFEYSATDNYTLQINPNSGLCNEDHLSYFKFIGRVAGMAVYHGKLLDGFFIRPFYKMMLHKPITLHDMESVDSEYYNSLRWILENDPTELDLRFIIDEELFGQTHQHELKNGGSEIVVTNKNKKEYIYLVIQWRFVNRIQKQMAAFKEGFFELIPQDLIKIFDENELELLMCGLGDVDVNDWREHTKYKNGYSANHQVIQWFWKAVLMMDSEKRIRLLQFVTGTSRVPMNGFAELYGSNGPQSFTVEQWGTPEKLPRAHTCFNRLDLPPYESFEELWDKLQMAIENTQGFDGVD

As for `O=C(CN1CCCC(c2nc3ccccc3s2)C1)NC(=O)NCC(F)(F)F` (stereo not shown) [Compound 1, 2-(3-(benzo[d]thiazol-2-yl)piperidin-1-yl)-N-((2,2,2-trifluoroethyl)carbamoyl) acetamide], the “reduction of budding of VSV-WT” value with VSV-WT (10 μM) is listed as “approximately 5 fold”. For the same compound, the “inhibition of egress of mVP40 VLPs” value in the experiment with MARV VP40 (mVP40) VLPs (20 μM) is listed as around 5 fold.
Regarding `Cc1n[nH]c(C)c1NC(=O)CN1CCCC(c2nc3ccccc3s2)C1` (stereo not shown) [Compound 2, 2-(3-(benzo[d]thiazol-2-yl)piperidin-1-yl)-N-(3,5-dimethyl-1H-pyrazol-4-yl) acetamide], the “target engagement in M-BiMC assay” value on mVP40-Nedd4 interaction is “showed target engagement”. Also, the “inhibition of egress of eVP40 VLPs” value in the experiment on EBOV VP40 (eVP40) VLPs (20 μM) is 2.5 fold; with EBOV VP40 (eVP40) VLPs (40 μM), 40 fold. Besides, the “inhibition of egress of Ebola (E) VP40 VLPs” value with EBOV VP40 (eVP40) VLPs (40 μM) is listed as “nearly full inhibition”. In the experiment with VSV-WT, the “inhibition of budding of live wild type VSV” value was “significantly inhibited”. For the same compound, the “inhibition of egress of Marburg (M) VP40 VLPs” value with MARV VP40 (mVP40) VLPs (20 μM) is recorded as “nearly full inhibition”. Also, the results for the “inhibition of egress of mVP40 VLPs” value in the experiment on MARV VP40 (mVP40) VLPs (20 μM) and in the experiment with MARV VP40 (mVP40) VLPs (40 μM) were 33 fold and 100 fold, respectively. Also, the “target engagement in E-BiMC assay” value with E-BiMC (Ebola VP40) is reported as “showed target engagement”.
Turning to `O=C(CN1CCCC(c2nc3ccccc3s2)C1)NCCOc1ccccc1` (stereo not shown) [Compound 2e, 2-(3-(benzo[d]thiazol-2-yl)piperidin-1-yl)-N-(2-phenoxyethyl)acetamide], the “activity in the M VP40 budding assay” value with MARV VP40 (mVP40) VLPs (10 μM) is reported as “active”.
Turning to `Cc1n[nH]c(C)c1NC(=O)CN1CCN(c2nc3ccccc3s2)CC1` [Compound 2g, 2-(4-(benzo[d]thiazol-2-yl)piperazin-1-yl)-N-(3,5-dimethyl-1H-pyrazol-4-yl)acetamide], in the experiment with MARV VP40 (mVP40) VLPs, the “activity in SAR studies, MVP40 VLP budding (words, FIG. 10)” value (shortened to “activity in SAR studies”) was “inactive”.
Consider `Cc1nc2ccccc2nc1SCC(=O)NC(=O)NCC(F)(F)F` [Compound 3, 2-((3-methylquinoxalin-2-yl)thio)-N-((2,2,2-trifluoroethyl)carbamoyl) acetamide], for which the figures for the “inhibition of egress of eVP40 VLPs” value with EBOV VP40 (eVP40) VLPs (1.0 μM), in the experiment with EBOV VP40 (eVP40) VLPs (10 μM) and in the experiment with EBOV VP40 (eVP40) VLPs (20 μM) were below 2 fold, 4.5 fold and 20 fold, respectively. Moreover, the “activity in SAR studies” value with MARV VP40 (mVP40) VLPs is recorded as “very effective”. Moreover, the “inhibition of egress of mVP40 VLPs” value is on record as 10 fold with MARV VP40 (mVP40) VLPs (1.0 μM), 100 fold in the experiment with MARV VP40 (mVP40) VLPs (10 μM) and 100 fold with MARV VP40 (mVP40) VLPs (20 μM).
Consider `CCNC(=O)NC(=O)CSc1nc2ccccc2nc1C` [Compound 3f, N-(ethylcarbamoyl)-2-((3-methylquinoxalin-2-yl)thio)acetamide], for which, in the experiment on MARV VP40 (mVP40) VLPs, the “potency relative to 3 in the MVP40 budding assay” value is “as or more potent than 3”.
As for `Cc1nc2ccccc2nc1SCC(=O)NC(=O)NC1CC1` [Compound 3g, N-(cyclopropylcarbamoyl)-2-((3-methylquinoxalin-2-yl)thio)acetamide], the “potency relative to 3 in the MVP40 budding assay” value in the experiment on MARV VP40 (mVP40) VLPs is “as or more potent than 3”.
Take `Cc1nc2ccccc2nc1SCC(=O)NC(=O)NCc1cccs1` [Compound 3i, 2-((3-methylquinoxalin-2-yl)thio)-N-((thiophen-2-ylmethyl)carbamoyl)acetamide]: in the experiment with MARV VP40 (mVP40) VLPs, the “potency relative to 3 in the MVP40 budding assay” value is recorded as “as or more potent than 3”.
On to `Cc1nn(-c2ccccc2)c(C)c1NC(=O)CN1CCCC(c2nc3ccccc3s2)C1` (stereo not shown) [Compound 4, 2-(3-(benzo[d]thiazol-2-yl)piperidin-1-yl)-N-(3,5-dimethyl-1-phenyl-1H-pyrazol-4-yl)acetamide], for which the “inhibition of egress of VSV-M40” value in the experiment with VSV-M40 (0.1 μM) is given as “approximately 2 fold”. Also, the “inhibition of egress of VSV-M40” value with VSV-M40 (0.5 μM) worked out at 3 fold. Further, the “inhibition of egress of eVP40 VLPs” value in the experiment with EBOV VP40 (eVP40) VLPs (0.5 μM) is 3 fold. In addition, the “inhibition of egress of eVP40 VLPs” value with EBOV VP40 (eVP40) VLPs (1.0 μM) was found to be 10 fold. Moreover, the “inhibition of egress of LFV Z VLPs” value in the experiment on LFV Z VLPs (0.5 μM) is recorded as above 5 fold. Moreover, in the experiment with VSV-WT (0.1 μM), the “PPxY-dependent budding of VSV reduced” value is reported as “approximately 50%”. In the experiment with VSV-WT (0.5 μM), the “PPxY-dependent budding of VSV reduced” value is recorded as around 100%, the “inhibition of egress of VSV-WT” value is “approximately 20 fold”, the “inhibition of egress of live VSV-WT” value was “more than 1 log” and the “titer of VSV-WT” value is listed as 1.8×10^6 pfu/ml. Moreover, in the experiment with MARV VP40 (mVP40) VLPs, the “activity in SAR studies” value is “sub-micromolar” and the “budding of mVP40 VLPs reduced” value is above 90%. The “inhibition of egress of mVP40 VLPs” value with MARV VP40 (mVP40) VLPs (0.5 μM) is reported as 30 fold. The “inhibition of egress of mVP40 VLPs” value in the experiment with MARV VP40 (mVP40) VLPs (1.0 μM) was 100 fold.
With `Cc1nc2ccccc2nc1SCC(=O)NC(=O)Nc1ccccc1` [Compound 5, 2-((3-methylquinoxalin-2-yl)thio)-N-(phenylcarbamoyl)acetamide], the “inhibition of egress of VSV-M40” value was found to be 2 fold with VSV-M40 (0.1 μM) and 6 fold in the experiment with VSV-M40 (0.5 μM). Besides, the figures for the “inhibition of egress of eVP40 VLPs” value with EBOV VP40 (eVP40) VLPs (0.1 μM), with EBOV VP40 (eVP40) VLPs (0.5 μM) and with EBOV VP40 (eVP40) VLPs (1.0 μM) were below 2 fold, 3.5 fold and 7 fold, respectively. Moreover, the “inhibition of egress of LFV Z VLPs” value in the experiment on LFV Z VLPs (0.1 μM) is given as “approximately 3 fold”; with LFV Z VLPs (0.5 μM), around 5 fold. Moreover, in the experiment with VSV-WT (0.5 μM), the “inhibition of egress of VSV-WT” value was 4 fold. In addition, the “inhibition of egress of mVP40 VLPs” value in the experiment with MARV VP40 (mVP40) VLPs (0.1 μM) worked out at 25 fold; with MARV VP40 (mVP40) VLPs (0.5 μM), 100 fold; in the experiment on MARV VP40 (mVP40) VLPs (1.0 μM), 100 fold. The IC50 (usually the concentration needed to halve the response being measured) with MARV VP40 (mVP40) VLPs (read-out: IC50, anti-budding activity on MVP40) is below 100 nM.

The values are drawn from patent US10160756B2 (priority 2014, dated 2018).
